What was measured:
Test in all cases: scanMAX kinase panel
Assay type in all cases: binding
MERTK = target: T1, MERTK (Homo sapiens, UniProt Q12866); details: read-out: % Control; for remaining binding at 1 µM: 1000 nM
T1 construct: purchased DiscoverX scanMAX
T1 sequence (Q12866 21-999): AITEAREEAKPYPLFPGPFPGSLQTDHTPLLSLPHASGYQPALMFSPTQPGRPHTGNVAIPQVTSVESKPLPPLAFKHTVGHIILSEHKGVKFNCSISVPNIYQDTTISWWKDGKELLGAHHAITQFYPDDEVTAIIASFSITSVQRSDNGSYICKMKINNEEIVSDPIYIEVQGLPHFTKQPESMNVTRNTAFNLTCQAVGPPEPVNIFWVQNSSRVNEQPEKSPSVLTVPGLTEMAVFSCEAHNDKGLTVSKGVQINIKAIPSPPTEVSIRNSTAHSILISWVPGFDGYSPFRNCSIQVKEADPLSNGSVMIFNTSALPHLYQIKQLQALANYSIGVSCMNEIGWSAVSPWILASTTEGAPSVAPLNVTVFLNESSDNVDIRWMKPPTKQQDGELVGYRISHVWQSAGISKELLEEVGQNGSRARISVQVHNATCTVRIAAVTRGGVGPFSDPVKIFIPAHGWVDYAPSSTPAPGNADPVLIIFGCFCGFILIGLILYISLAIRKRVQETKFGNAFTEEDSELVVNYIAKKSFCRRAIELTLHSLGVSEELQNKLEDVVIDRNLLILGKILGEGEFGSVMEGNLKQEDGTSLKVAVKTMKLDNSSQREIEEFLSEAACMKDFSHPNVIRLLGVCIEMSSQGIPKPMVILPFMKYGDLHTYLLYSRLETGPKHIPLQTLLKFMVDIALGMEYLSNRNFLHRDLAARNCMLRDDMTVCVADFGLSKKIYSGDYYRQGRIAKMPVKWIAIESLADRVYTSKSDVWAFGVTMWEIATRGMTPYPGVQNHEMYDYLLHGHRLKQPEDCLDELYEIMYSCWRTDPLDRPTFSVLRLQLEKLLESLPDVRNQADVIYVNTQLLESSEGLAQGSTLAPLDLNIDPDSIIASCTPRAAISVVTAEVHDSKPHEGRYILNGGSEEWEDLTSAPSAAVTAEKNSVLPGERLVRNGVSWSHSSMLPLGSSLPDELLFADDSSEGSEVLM
From the text: (§1) Supplemental Table S2. scanMAXSM Kinome Assay Results. Complete tabulated data of all 468 kinases from the panel, including
(§2) 403 wild-type and 65 mutant isoforms. […] Cmpd 11 and Cmpd 24

TRKC = target: T2, TRKC (Homo sapiens, UniProt Q16288); details: read-out: % Control; for remaining binding at 1 µM: 1000 nM
T2 construct: purchased DiscoverX (scanMAX panel)
T2 sequence (Q16288 32-839): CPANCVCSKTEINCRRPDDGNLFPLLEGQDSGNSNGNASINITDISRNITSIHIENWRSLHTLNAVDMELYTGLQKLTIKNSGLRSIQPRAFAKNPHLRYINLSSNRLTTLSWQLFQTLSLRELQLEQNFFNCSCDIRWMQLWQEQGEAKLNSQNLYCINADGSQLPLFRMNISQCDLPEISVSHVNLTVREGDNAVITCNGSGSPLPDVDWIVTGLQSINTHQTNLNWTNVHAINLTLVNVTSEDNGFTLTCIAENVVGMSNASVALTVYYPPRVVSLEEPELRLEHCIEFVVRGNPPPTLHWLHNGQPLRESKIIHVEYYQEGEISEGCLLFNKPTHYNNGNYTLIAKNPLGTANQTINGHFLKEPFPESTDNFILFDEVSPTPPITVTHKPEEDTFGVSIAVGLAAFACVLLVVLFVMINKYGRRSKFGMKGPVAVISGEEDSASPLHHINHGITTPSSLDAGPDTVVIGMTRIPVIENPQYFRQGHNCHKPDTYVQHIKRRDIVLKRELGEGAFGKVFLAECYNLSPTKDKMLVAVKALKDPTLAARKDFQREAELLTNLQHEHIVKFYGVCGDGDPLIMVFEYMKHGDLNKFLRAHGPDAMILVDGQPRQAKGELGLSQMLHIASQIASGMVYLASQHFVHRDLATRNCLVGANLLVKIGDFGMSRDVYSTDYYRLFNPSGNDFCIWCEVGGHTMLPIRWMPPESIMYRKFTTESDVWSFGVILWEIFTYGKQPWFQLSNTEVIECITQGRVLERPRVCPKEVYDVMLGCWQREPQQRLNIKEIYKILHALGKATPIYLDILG
From the text: as §1, §2

MAP3K2 = target: T3, MAP3K2 (Homo sapiens, UniProt Q9Y2U5); details: read-out: % Control; for remaining binding at 1 µM: 1000 nM
T3 construct: purchased DiscoverX scanMAX
T3 sequence (Q9Y2U5 1-619): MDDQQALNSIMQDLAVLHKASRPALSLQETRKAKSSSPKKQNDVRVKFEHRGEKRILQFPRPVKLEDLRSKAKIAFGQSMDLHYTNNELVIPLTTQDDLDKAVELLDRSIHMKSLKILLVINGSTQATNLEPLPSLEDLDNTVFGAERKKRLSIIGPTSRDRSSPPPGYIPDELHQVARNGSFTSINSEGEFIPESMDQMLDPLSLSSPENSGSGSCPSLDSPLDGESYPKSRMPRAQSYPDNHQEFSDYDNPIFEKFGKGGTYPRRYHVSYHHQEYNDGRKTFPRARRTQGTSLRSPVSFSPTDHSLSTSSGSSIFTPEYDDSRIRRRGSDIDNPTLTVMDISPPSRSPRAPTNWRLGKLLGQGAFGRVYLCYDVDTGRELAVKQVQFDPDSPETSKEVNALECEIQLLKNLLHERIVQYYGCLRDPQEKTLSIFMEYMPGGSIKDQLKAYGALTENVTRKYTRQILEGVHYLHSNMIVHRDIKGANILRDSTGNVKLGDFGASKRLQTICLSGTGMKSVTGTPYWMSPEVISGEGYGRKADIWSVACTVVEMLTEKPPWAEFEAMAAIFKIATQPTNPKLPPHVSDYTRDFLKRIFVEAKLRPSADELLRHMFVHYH
From the text: as §1, §2

VRK2 = target: T4, VRK2 (Homo sapiens, UniProt Q86Y07); details: read-out: % Control; for remaining binding at 1 µM: 1000 nM
T4 construct: purchased DiscoverX (scanMAX panel)
T4 sequence (Q86Y07 whole entry): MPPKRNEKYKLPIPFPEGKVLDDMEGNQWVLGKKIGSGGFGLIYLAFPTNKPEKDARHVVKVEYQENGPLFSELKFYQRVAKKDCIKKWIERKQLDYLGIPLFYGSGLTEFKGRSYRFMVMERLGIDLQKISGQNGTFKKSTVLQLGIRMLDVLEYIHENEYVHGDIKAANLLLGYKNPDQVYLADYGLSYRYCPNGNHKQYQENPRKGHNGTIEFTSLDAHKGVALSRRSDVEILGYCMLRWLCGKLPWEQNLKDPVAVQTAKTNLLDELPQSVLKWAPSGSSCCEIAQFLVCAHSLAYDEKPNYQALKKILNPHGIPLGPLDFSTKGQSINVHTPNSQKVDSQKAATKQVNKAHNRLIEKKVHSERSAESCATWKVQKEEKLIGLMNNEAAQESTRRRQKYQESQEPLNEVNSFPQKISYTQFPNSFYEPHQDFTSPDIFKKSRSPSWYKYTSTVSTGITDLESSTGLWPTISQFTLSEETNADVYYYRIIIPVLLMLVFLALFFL
From the text: as §1, §2

FLT3(R834Q) = target: T5, FLT3(R834Q) (Homo sapiens, UniProt P36888, R834Q); details: read-out: % Control; for remaining binding at 1 µM: 1000 nM
T5 construct: purchased DiscoverX scanMAX
T5 sequence (P36888 27-993 R834Q): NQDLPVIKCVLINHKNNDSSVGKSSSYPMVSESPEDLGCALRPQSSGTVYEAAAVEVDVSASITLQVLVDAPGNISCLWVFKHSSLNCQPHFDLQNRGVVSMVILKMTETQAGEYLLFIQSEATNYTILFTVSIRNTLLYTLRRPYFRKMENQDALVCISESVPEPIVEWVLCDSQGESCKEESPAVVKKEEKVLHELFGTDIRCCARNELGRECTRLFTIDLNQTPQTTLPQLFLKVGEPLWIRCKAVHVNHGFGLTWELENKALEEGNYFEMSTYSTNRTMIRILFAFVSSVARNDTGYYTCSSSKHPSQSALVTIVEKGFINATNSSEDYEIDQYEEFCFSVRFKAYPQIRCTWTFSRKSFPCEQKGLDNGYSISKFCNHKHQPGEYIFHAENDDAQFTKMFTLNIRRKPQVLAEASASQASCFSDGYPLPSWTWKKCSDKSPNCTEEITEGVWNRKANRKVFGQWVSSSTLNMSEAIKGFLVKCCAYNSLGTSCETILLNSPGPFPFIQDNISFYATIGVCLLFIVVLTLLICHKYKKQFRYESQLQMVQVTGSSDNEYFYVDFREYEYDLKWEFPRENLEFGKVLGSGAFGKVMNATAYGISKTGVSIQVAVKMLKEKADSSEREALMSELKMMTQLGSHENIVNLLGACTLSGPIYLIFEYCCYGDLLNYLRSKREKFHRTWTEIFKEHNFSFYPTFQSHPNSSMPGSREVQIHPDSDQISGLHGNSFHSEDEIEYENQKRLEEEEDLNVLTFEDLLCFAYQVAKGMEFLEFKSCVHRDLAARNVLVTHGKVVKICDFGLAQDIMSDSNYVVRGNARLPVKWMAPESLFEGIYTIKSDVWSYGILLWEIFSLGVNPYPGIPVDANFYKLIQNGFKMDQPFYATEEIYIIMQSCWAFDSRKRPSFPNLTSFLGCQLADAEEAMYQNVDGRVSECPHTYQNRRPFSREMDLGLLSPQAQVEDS
From the text: as §1, §2

BLK = target: T6, BLK (Homo sapiens, UniProt P51451); details: read-out: % Control; for remaining binding at 1 µM: 1000 nM
T6 construct: purchased DiscoverX scanMAX
T6 sequence (P51451 whole entry): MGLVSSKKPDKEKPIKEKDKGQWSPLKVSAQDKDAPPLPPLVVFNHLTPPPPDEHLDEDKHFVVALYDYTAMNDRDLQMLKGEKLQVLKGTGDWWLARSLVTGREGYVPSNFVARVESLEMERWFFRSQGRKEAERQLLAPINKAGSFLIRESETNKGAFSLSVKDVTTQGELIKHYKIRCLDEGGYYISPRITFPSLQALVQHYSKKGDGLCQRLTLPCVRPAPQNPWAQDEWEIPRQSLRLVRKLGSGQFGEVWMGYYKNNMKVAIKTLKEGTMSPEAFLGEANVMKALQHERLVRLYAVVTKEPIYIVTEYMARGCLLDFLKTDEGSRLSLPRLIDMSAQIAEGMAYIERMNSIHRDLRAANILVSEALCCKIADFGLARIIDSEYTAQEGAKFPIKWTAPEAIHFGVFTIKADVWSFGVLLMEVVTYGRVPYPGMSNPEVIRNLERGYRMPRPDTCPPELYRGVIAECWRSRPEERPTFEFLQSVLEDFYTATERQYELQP
From the text: as §1, §2

FLT3(ITD,F691L) = tested on: FLT3(ITD,F691L)
From the text: as §1, §2

KIT(V559D) = target: T7, KIT(V559D) (Homo sapiens, UniProt P10721, V559D); details: read-out: % Control; for remaining binding at 1 µM: 1000 nM
T7 construct: purchased DiscoverX scanMAX
T7 sequence (P10721 26-976 V559D): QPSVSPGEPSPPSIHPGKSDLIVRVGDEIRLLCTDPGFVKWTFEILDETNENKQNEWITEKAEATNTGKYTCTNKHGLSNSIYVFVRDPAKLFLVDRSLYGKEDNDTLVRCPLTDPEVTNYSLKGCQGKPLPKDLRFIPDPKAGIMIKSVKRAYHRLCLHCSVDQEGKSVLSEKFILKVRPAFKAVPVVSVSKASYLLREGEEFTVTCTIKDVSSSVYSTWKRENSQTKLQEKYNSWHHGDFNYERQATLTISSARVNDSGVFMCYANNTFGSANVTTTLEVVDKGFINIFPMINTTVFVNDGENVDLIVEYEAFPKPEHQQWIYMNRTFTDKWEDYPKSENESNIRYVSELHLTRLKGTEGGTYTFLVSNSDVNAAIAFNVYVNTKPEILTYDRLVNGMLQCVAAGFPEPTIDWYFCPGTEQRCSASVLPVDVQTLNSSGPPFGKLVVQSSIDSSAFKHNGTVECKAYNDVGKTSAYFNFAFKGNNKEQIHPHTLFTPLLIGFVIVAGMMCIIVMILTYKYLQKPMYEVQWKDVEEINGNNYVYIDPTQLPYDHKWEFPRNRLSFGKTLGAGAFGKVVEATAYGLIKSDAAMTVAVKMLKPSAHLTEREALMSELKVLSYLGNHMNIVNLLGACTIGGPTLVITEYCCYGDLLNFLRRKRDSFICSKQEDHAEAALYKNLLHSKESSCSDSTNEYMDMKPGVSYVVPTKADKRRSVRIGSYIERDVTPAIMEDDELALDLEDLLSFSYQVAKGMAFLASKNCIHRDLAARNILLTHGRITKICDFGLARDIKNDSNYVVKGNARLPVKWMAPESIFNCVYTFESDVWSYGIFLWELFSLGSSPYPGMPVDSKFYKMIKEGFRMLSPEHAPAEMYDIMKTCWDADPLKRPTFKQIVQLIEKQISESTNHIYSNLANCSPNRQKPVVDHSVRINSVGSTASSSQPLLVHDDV
From the text: as §1, §2

Structure (SMILES)	remaining binding at 1 µM (MERTK) [%]	remaining binding at 1 µM (TRKC) [%]	remaining binding at 1 µM (MAP3K2) [%]	remaining binding at 1 µM (VRK2) [%]	remaining binding at 1 µM (FLT3(R834Q)) [%]	remaining binding at 1 µM (BLK) [%]	% Control (FLT3(ITD,F691L); 1000 nM) [%]	remaining binding at 1 µM (KIT(V559D)) [%]	remaining binding at 0.1 µM (MERTK; 100 nM) [%]	remaining binding at 0.1 µM (TRKC; 100 nM) [%]	remaining binding at 0.1 µM (MAP3K2; 100 nM) [%]	remaining binding at 0.1 µM (VRK2; 100 nM) [%]	remaining binding at 0.1 µM (FLT3(R834Q); 100 nM) [%]	remaining binding at 0.1 µM (BLK; 100 nM) [%]	% Control (FLT3(ITD,F691L); 100 nM) [%]	remaining binding at 0.1 µM (KIT(V559D); 100 nM) [%]
Cc1cc(NC(=O)[C@H](O)c2cccc(F)c2)ccc1-c1cn(C)c2ncnc(N)c12 [Compound 11, (R)-N-(4-(4-amino-7-methyl-7H-pyrrolo[2,3-d]pyrimidin-5-yl)-3-methylphenyl)-2-(3-fluorophenyl)-2-hydroxy acetamide]	65	9.5	14	26	59	19	100	27								
Cc1nc(N)c2c(-c3ccc(NC(=O)[C@H](O)c4cccc(F)c4)cc3C)cn(C)c2n1 [Compound 24]	100	79	100	100	98	100	63	72								
Cc1nc(N)c2c(-c3ccc(NC(=O)[C@H](O)c4cccc(C(F)(F)F)c4)cc3C)cn(C)c2n1 [Compound 26]	29	10	89	78	7.5	91	42	0.45	94	100	100	94	84	100	41	96

From paper PMC9611727, “Optimization of a Novel Mandelamide-Derived Pyrrolopyrimidine Series of PERK Inhibitors” (Pharmaceutics, 2022)
